Source: patent US20050256304A1, “Modified factor VIII” (priority 2002, published 2005)

Experiments:
[1] = tested on: T-cells derived from haemophiliac patients; assay: T-cell proliferation with FVIII specific T cell lines from haemophiliac patients; assay type: cell-based, human; conditions: T-cells from haemophiliac blood
Text: In a further embodiment of this approach, the inventors have provided a method whereby the FVIII sequence is scanned for the presence and location of T-cell epitopes using ex vivo biological T-cell assays where the T-cells are derived from haemophiliac patients. For a proportion of such patients the FVIII protein constitutes a foreign protein and a potent antigen in vivo. The inventors have established that it is possible to derive polyclonal and in principle mononclonal T-cell lines in vitro from the PBMC of such individuals and these lines may be used as effective reagents in the mapping of T-cell epitopes within the FVIII protein. […]
In the present case in the synthetic peptides were analysed using a system of pools each containing 8 different peptide sequences. […] These cells are stimulated with antigen (e.g. synthetic peptide or whole protein) using most preferably autologous antigen presenting cells as previously for around 4 days and the subsequent proliferative response (if any) is measured thereafter. […] In this way any individual T-cell epitope is represented in 2 separate pools and induced proliferation will be detected from treatments using both of those pools. Where a proliferative response is detected to any given peptide pool, the peptide pool is decoded repeating the assay using the individual pool members in isolation. […]

naïve human T-cells = assay: Naïve T cell epitope map: ex vivo T-cell proliferation using PBMC from healthy donors; assay type: cell-based; conditions: cells of a healthy non haemophiliac individual
Text: This approach has proven to be a particularly effective method and is disclosed herein as an embodiment of the invention. The method can be applied to test part of the sequence, for example a FVIII protein lacking all or part of the B-domain; the method can be applied to selected regions of the sequence, for example a sub-set of FVIII peptides such as all or some of those listed in FIG. 1; or the method may be applied to test whole FVIII sequence. In the present studies, the method has involved the testing of overlapping FVIII-derived peptide sequences in a scheme so as to scan and test a FVIII sequence lacking the B-domain. The synthetic peptides are tested for their ability to evoke a proliferative response in human T-cell cultured in vitro. […] The stimulation index is conventionally derived by division of the proliferation score (e.g. counts per minute of radioactivity if using ^3H-thymidine incorporation) measured to the test peptide by the score measured in cells not contacted with a test peptide.
Blood from 40 healthy HLA-DR typed donors was used to isolate PBMC which were used to screen individual FVIII peptides at two concentrations (1 and 5 μM). […] MHC allotypes were detected using
PBMC contain physiological numbers of naïve T cells and antigen presenting cells. […] Cultures were harvested onto filtermats and the cpm/well was determined using a Wallac Microplate Beta counter.

| Sequence | proliferation of ex vivo T-cells [1] | proliferation of ex vivo T-cells (naïve human T-cells) |
| --- | --- | --- |
| IARYIRLHPTHYSIRSTLRM [Peptide P11] | active | – |
| ISQFIIMYSLDGKKW [Peptide P10] | able to evoke proliferation of ex vivo T-cells | able to evoke proliferation of ex vivo T-cells |
